Laboratory results as given in a melting point compilation (Tetko et al.; mined from patent text by program, amines drawn as free bases though some values may be those of a salt).

| SMILES | melting point [°C] |
| --- | --- |
| CCCCc1oc2ccccc2c1-c1ncc(-c2ccc3cc(OCC#N)ccc3c2)o1 | 127 |
| CCCC(C(=O)OCC)N1CC(COc2cccc(Cl)c2)OC1=O (stereo not drawn) | 43 to 49 |
| CC(=O)N(C1=C(NC(C)C)C(=O)c2c(cnn2C)C1=O)C(C)C | 123 to 126 |
| COC=Nc1c(SC)c(-c2ncon2)nn1-c1c(Cl)cc(C(F)(F)F)cc1Cl | 119 to 121 |
| CCCn1c(-c2ccccc2)nc2cc(CO)ccc21 | 113 |
| CC(C)c1cccc(CCC(O)CC2CCCCC2)c1NC(=O)CC1c2ccccc2Oc2ccccc21 (stereo not drawn) | 148 |
| O=C1CCC(c2ccc3c(c2)NCCO3)=NN1 | 198 to 199 |
| NC1SC2=CC=CC2=C1C(=O)c1ccc(Br)cc1 (stereo not drawn) | 205 to 206 |
| CCc1oc2ccccc2c1C(=O)N(C)Cc1ccc2c(Br)c(O)ccc2c1 | 176 to 178 |
| CN(C(=O)OC(C)(C)C)c1cc(Oc2ccccc2N2CCCC2)ccc1N | 136 to 138 |
| COc1cccc2c1C(=O)c1c(OC)cc(C(=O)N(C)OCc3ccccc3)cc1C2=O | 170 to 171 |
| Cc1ccc(C)c(OCc2ccccc2C(Cl)Cl)c1 | 62 to 65 |
| C#CC(C)N(C)C(=O)Nc1ccc(Oc2cccc(Cl)n2)cc1 (stereo not drawn) | 140 to 142 |
| CC(C)(NC(=O)CCn1cnc(C=O)c1)c1ccc(Cl)cc1 | 151 to 153 |
| O=C1N(c2ccccc2)CCN1C1CCNCC1 | 123 to 124 |
| COc1ccc(NC(=O)Nc2c(C)cc(Oc3ccc4nc(COc5ccc(CC6SC(=O)NC6=O)cc5)n(C)c4c3)cc2C)cc1 (stereo not drawn) | 229 to 231 |
| N#Cc1cccc(Oc2ccc(CBr)cc2)c1C#N | 130 to 132 |
| CCOC(=O)N(c1ccc(Cl)cc1)c1ccccc1[N+](=O)[O-] | 90 to 93 |
| Cc1cc(N2CCN(c3nc(-c4ccccc4)nc(C)c3C)CC2)cc(C)c1O | 188 to 189 |
| CCCc1c2c(c(O)c3c(=O)cc(C(=O)O)oc13)C(O)CCC2 (stereo not drawn) | 245 to 249 |
| CCOC(=O)c1cc(=O)c2ccc(OCCCCCOc3ccc(C(C)=O)c(O)c3)cc2o1 | 136 to 137 |
| COc1nc(C)c(C)nc1NC(=S)N1CCN(c2cc(C)cc(C)c2)CC1 | 160 to 162 |
| OC1Cc2cc(F)c(F)cc2C1 | 57 to 58 |
| CC1SC(c2cccnc2)N(c2ccccc2F)C1=O (stereo not drawn) | 112 |

| SMILES | melting point [°C] |
| --- | --- |
| CCCOc1ccc([N+](=O)[O-])nc1C | 54 to 56 |
| CC(C#Cc1cccc(C2=NOC(c3ccc(F)cc3)C2)c1)N(O)C(N)=O (stereo not drawn) | 132 to 133 |
| CNC(=O)c1ccc(Nc2nc(Nc3cc4c(cc3OC)CCN(Cc3ncco3)CC4)ncc2Cl)c(OC)c1 | 85 to 96 |
| CCOC(=O)c1cn(-c2cc(NC(=O)OC(C)(C)C)c(F)cc2F)c2c(C)c(F)c(F)c([N+](=O)[O-])c2c1=O | 188 to 189 |
| COC(=O)Cc1ccccc1CC(=O)NCCc1ccc(OC)c(OC)c1 | 88 to 91 |
| CNC(=O)C(NC(=O)c1ccc(F)cc1C(F)(F)F)C(O)CO (stereo not drawn) | 163 |
| CC(=NOCCOc1ccc(CC2SC(=O)N(C(c3ccccc3)(c3ccccc3)c3ccccc3)C2=O)cc1)c1ccc(-c2ccccc2)cc1 (stereo not drawn) | 145 |
| CCOc1ccccc1-c1ccc2cnc(Nc3ccc(N4CCN(C)CC4)cc3)nn12 | 164 to 165 |
| O=C(Nc1ccc(F)cc1F)C(=O)c1c2n(c3ccccc13)CCNCC2 | 184 to 186 |
| OCC1CC2CCC13CN(CC1CC1)CCC31c3cccc(O)c3OC21 (stereo not drawn) | 187 to 190 |
| CC(C)(C)NCC(O)COc1ccc2oc(-c3ccc(O)c(O)c3)cc(=O)c2c1 (stereo not drawn) | 193 |
| Oc1ccc(-c2nnc(-c3ccccc3)o2)cc1 | 256 |
| CCn1c(=O)ccc2cnc(Nc3ccc(N(C)C)cc3)nc21 | 189 to 191 |
| O=C(c1ccc(F)cc1)C1CCN(CCCn2c(=S)[nH]c3ccccc32)CC1 | 149 |
| Cc1cc(F)ccc1-c1nc(OCC(CO)CO)nc2c1ccc(=O)n2-c1c(F)cccc1F | 77 to 81 |
| COc1ccnc(N2CCN(CC3(CNC(C)=O)C=CC=CC3)CC2)n1 (stereo not drawn) | 144 to 145 |
| CNc1nc(-c2cccc(OCc3ccccc3)c2)c2cc(OC)c(OC)cc2n1 | 116 to 118 |
| COC(=O)c1ccc(C(=O)c2ccc(CCl)cc2)cc1 | 122 to 125 |
| COC(=O)c1cc(C(C)(C)C#N)cc(C(C)(C)C#N)c1 | 83 to 85 |
| CC1COc2c(F)c(F)c([N+](=O)[O-])c3c(=O)[nH]c(=O)n1c23 (stereo not drawn) | 286 to 288 |
| CN(C)C(=O)Nc1cc(C(F)(F)F)on1 | 126 |
| CCOC(=O)C(Cc1cc(Oc2c(Cl)cc(C(F)(F)F)cc2Cl)ccc1SC(F)(F)F)C(=O)OCC | 83 |
| CCOCc1cc(OC)c(-c2ccc(C[C@H](NC(=O)c3c(F)cccc3F)C(=O)OCC)cc2)c(OC)c1 | 87 to 89 |
| O=C(O)/C=C/c1ccc(OCc2ccccc2)cc1OCc1ccccc1 | 153 to 155 |
